These results are taken from patent publication US5631246A, “Use of PAF” (The Canadian Red Cross Society, priority 1993, dated 1997).

Series [1] can be described thus: Stability of PAF in stored monocyte conditioned media. Type of series: physicochemical. The following applies: -80° C., various periods of time; within experimental error. From the text: In addition, PAF was extracted from the monocyte supernatants and assayed using the following highly specific and sensitive radioimmunoassay. As the most predominant bioactive forms of PAF secreted by monocytes are the C16 and C18 alkyl moieties (Sugiura and Waku, (1987) Platelet-Activating Factor and Related Lipid Mediators, F. Snyder Ed. Plenum Press, N.Y. 55-85; Prescott et al. (1990) Proc. Natl. Acad. Sci. U.S.A. 81:3534-3538), PAF was quantitated using the highly specific and sensitive ^125 I-RIA kit manufactured by NEN Research Products (Du Pont Canada, Mississauga, Ontario, Canada) following extraction of the monocyte supernatants with 5 mL each of methanol and chloroform and 3.5 mL of water per mL of sample. The recovered chloroform layers, dried under nitrogen, were reconstituted in the PAF assay kit buffer prior to analysis. […] Recoveries of PAF (90±1%, n=>130) were assessed by adding trace amounts of ^3 H-PAF to the sample prior to extraction and determining the % recoveries using a liquid scintillation counter (Model-7000, Beckman Instruments Canada). Iodinated samples were counted on a Beckman Gamma 5500 counter (Beckman Instruments, Fullerton, Calif.). […]

Series [2] deals with endothelial cells (ECs). The series can be described thus: vWf release from ECs exposed directly to PAF or thrombin. The following applies: for Increase in vWf release (%), BTP-dioxolane absent: 4 hours.
Experimental: Synthetic PAF (1-O-alkyl-2-acetyl-sn-glyceryl-3-phosphorylcholine; Sigma #P-9525) prepared from bovine heart lecithin (Demopoulos et al. (1979) J. Biol. Chem. 254: 9355-358) was 99% pure by TLC analysis, HPLC analysis indicated this product consisted of 70% C16 and 13% C18 forms of PAF (Mita et al., (1989) Anal. Biochem. 180:131-135). After removal of chloroform, PAF was resuspended in DMEM/F12 culture medium containing 1% Nutridoma-HU (final protein concentration of 40 μM stock solution). After sonication for 3×1 minute periods, the PAF solution was diluted and used immediately.
Media with or without thrombin (@5 units/mL) served as positive and negative controls respectively. ECs were incubated for 1, 10, 20 or 30 minutes and 1, 2, 4, 6 and 24 hours in the PAF and thrombin time course studies. The EC conditioned media were recovered, centrifuged to remove any cell debris, and then frozen at -80° C. for a maximum period of 4 weeks prior to analyses. […] Where appropriate ECs were preincubated with BTP-dioxolane which was not cytotoxic to the cells as determined by the dye exclusion test.
Endothelial cells (ECs) were harvested from human umbilical cord vein as described by Jaffe et al. ((1973) Culture of Human Endothelial Cells Derived from Umbilical Veins: Identification by Morphologic and Immunologic Criteria, J. Clin. Invest. 52:2745-2756) and modified by Hashemi et al. (1990, supra). Endothelial cells were subcultured in 0.2% (w/v) gelatin-coated, 12-well Linbro™ polystyrene, tissue culture plates (Flow Laboratories, Mississauga, Ontario), then plated at a density of 1-2×10^4 /well and grown to confluence.
The standard consisted of a pool of plasma from 20 normal individuals previously determined to contain 1 unit of vWf per mL by the procedure of Zimmerman et al. (1977, J. Clin. Invest. 59:984-989). […] For some experiments, the maximum vWf that could be released was determined. Following incubation, the EC conditioned media were recovered and fresh media containing 0.05% (v/v) Tween 20 and 10 μM each of the protease inhibitors D-phenylalanyl-phenylalanyl-arginyl-chloromethyl ketone, D-phenylalanyl-propyl-arginyl-chloromethyl ketone and 1,5-Dansyl-glutamyl-glycyl-arginyl-chloromethyl ketone were added to the EC monolayers of each corresponding well. The cells were freeze-thawed three times and, to assure complete breakdown of the cell membranes as well as the Weibel-Palade bodies, disrupted in a glass homogenizer using a motor-driven teflon pestle. After centrifugation, total vWf concentration was determined in the supernatants.
In order to examine the responsiveness of ECs to direct PAF exposure, we incubated the monolayers of ECs with 0-300 pico molar (pM) PAF for a period of 4 hours at 37° C. and determined the amount of vWf released into the EC media. […] To determine the time course of PAF effects on vWf release, 300 pM PAF was incubated with monolayers of ECs for 1, 10, 20 and 30 minutes as well as for 1, 2, 4, 6 and 24 hours. […] As a control, the vWf release from thrombin stimulated ECs was also determined (FIG. 5).
Series [3] has as its system ECs. The following applies: stimulation with PAF; D'Humieres et al. (1986); cited from earlier work.

Turning to “1-O-alkyl-2-acetyl-sn-glyceryl-3-phosphorylcholine [PAF]”, the “PAF values in monocyte conditioned media after storage” value in series [1] is “gave the same values”. Further, in series [2] (300 pM PAF, 30 minutes, P<0.05, n=5), the “vWf release from ECs (maximal)” value was 151%. The “vWf release as share of the maximal vWf recoverable” value in series [2] (300 pM PAF, 30 minutes, […]) is on record as ~ 4%. For the same substance, the “time course of vWf release from ECs” value in series [2] (300 pM PAF, FIG. 5) is given as “released vWf at all time points up to 24 hours”. For the same substance, in series [2] (FIG. 4, 4 hours at 37° C., n=5), the “PAF concentration range of greatest vWf release response” value was 100 to 300 pM. For the same substance, the “Increase in vWf release (%), BTP-dioxolane absent” value in series [2] (PAF 100 pM, n=5) was found to be 190.8 ± 46.6%; in series [2] (PAF 300 pM, n=5) it was 204.2 ± 48.7%. Besides, the “PGI2 release from ECs” value in series [3] is “release PGI2 in response to stimulation”.
